Source: patent publication US20240190880A1 (THE REGENTS OF THE UNIVERSITY OF MICHIGAN, priority 2021, published 2024)

molecular target: T1, ER (Homo sapiens, UniProt P03372); experiment: ER degradation activity, in-cell western blot analysis in T47D cells; type: cell-based; conditions: 16 hours, Table A does not say which cell line (T47D or MCF7), read-out: Potency (DC50)
T1 construct: host or cells: T47D and MCF7 human breast cancer cells
T1 sequence (P03372 1-595): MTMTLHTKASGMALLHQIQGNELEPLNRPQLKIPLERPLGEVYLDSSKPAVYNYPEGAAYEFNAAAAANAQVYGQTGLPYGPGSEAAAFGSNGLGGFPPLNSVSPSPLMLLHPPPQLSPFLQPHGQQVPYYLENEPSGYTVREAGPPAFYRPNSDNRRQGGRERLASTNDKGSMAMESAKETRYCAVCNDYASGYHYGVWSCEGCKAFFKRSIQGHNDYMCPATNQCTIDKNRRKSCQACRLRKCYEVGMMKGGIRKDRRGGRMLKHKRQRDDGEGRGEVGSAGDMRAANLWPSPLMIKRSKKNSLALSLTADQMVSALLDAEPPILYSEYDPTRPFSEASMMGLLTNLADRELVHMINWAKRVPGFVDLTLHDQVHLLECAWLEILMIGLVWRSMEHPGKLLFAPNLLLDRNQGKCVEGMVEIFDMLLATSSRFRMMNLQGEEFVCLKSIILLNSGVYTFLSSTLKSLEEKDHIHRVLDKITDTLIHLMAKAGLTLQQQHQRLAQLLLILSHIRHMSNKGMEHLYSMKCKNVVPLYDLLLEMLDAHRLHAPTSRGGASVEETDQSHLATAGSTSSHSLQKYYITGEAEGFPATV
Description: ER degradation activity was evaluated in the human breast cancer cell line T47D and MCF7 purchased from the American Type Culture Collection (ATCC), Manassas, VA, and maintained and cultured in Dulbecco's Modified Eagle's medium (DMEM) containing 10% fetal bovine serum, 1 unit/ml of penicillin and 1 μg/ml of streptomycin.
The protocol for the in-cell western blot analysis: a. seed cells in black-sided/clear bottom 96- or 384-well plates at 40,000 or 10,000 cells/well, overnight; b. add diluted compounds (final 0.5% DMSO), 16 hours. […] RT 2 h, gentle shaking. Negative control: cells plus secondary antibodies (no primary antibodies); e. wash ×4 with PBS+0.05-0.1% Tween 20, gentel shaking; f. anti-rabbit-680 and anti-mouse-800 (both 1:1000 in LiCor block+0.05% Tween20, RT 1 h, gentle shaking, no light. LI-COR: 0.2% to reduce background; g. wash×4 with PBS+0.05% Tween 20, gental shaking; h. add 100 μL or 25 μL of PBS to each well and read on CLX plate reader. The relative ER percentage in treated cells were obtained by comparing the values of treated wells to those in untreated and DMSO-treated wells as 100%.

Row | SMILES | DC50
1 | O=C1CCC(N2C(=O)c3cc4c(cc3C2=O)CN(C2CN(C(=O)C3CCN(c5ccc([C@@H]6c7ccc(O)cc7CC[C@@H]6c6ccccc6)cc5)CC3)C2)C4)C(=O)N1 (mixture of isomers) [E 15, Rac-2-(2,6-dioxopiperidin-3-yl)-6-(1-(1-(4-((1R,2S)-6-hydroxy-2-phenyl-1,2,3,4-tetrahydronaphthalen-1-yl)phenyl)piperidine-4-carbonyl)azetidin-3-yl)-6,7-dihydropyrrolo[3,4-f]isoindole-1,3(2H,5H)-dione] | 10 to 100 nM
2 | O=C1CCC(N2C(=O)c3cc4c(cc3C2=O)CN(CC2CN(C(=O)C3CCN(c5ccc([C@@H]6c7ccc(O)cc7CC[C@@H]6c6ccccc6)cc5)CC3)C2)C4)C(=O)N1 (mixture of isomers) [E 16, Rac-2-(2,6-dioxopiperidin-3-yl)-6-((1-(1-(4-((1R,2S)-6-hydroxy-2-phenyl-1,2,3,4-tetrahydronaphthalen-1-yl)phenyl)piperidine-4-carbonyl)azetidin-3-yl)methyl)-6,7-dihydropyrrolo[3,4-f]isoindole-1,3(2H,5H)-dione] | 10 to 100 nM
3 | O=C1CCC(N2C(=O)c3cc4c(cc3C2=O)CN(CC(=O)N2CCC3(C2)CN(c2ccc([C@@H]5c6ccc(O)cc6CC[C@@H]5c5ccccc5)cc2)C3)C4)C(=O)N1 (mixture of isomers) [E 17, rac-2-(2,6-dioxopiperidin-3-yl)-6-(2-(2-(4-((1R,2S)-6-hydroxy-2-phenyl-1,2,3,4-tetrahydronaphthalen-1-yl)phenyl)-2,6-diazaspiro[3.4]octan-6-yl)-2-oxoethyl)-6,7-dihydropyrrolo[3,4-f]isoindole-1,3(2H,5H)-dione] | 10 to 100 nM
4 | O=C1CCC(N2C(=O)c3cc4c(cc3C2=O)CN(CC(=O)N2CC3(C2)CN(c2ccc([C@@H]5c6ccc(O)cc6CC[C@@H]5c5ccc(F)cc5)cc2)C3)C4)C(=O)N1 (mixture of isomers) [E 18, Rac-2-(2,6-dioxopiperidin-3-yl)-6-(2-(6-(4-((1R,2S)-2-(4-fluorophenyl)-6-hydroxy-1,2,3,4-tetrahydronaphthalen-1-yl)phenyl)-2,6-diazaspiro[3.3]heptan-2-yl)-2-oxoethyl)-6,7-dihydropyrrolo[3,4-f]isoindole-1,3(2H,5H)-dione] | 10 to 100 nM
5 | O=C1CCC(N2C(=O)c3cc4c(cc3C2=O)CN(CC(=O)N2CC3(CCN(c5ccc([C@@H]6c7ccc(O)cc7CC[C@@H]6c6ccc(F)cc6)cc5)CC3)C2)C4)C(=O)N1 (mixture of isomers) [E 19, Rac-2-(2,6-dioxopiperidin-3-yl)-6-(2-(7-(4-((1R,2S)-2-(4-fluorophenyl)-6-hydroxy-1,2,3,4-tetrahydronaphthalen-1-yl)phenyl)-2,7-diazaspiro[3.5]nonan-2-yl)-2-oxoethyl)-6,7-dihydropyrrolo[3,4-f]isoindole-1,3(2H,5H)-dione] | < 10 nM
6 | O=C1CCC(N2C(=O)c3cc4c(cc3C2=O)CN(CC(=O)N2CCC3(CC2)CCN(c2ccc([C@@H]5c6ccc(O)cc6CC[C@@H]5c5ccccc5)cc2)CC3)C4)C(=O)N1 (mixture of isomers) [E 20, Rac-2-(2,6-dioxopiperidin-3-yl)-6-(2-(9-(4-((1R,2S)-6-hydroxy-2-phenyl-1,2,3,4-tetrahydronaphthalen-1-yl)phenyl)-3,9-diazaspiro[5.5]undecan-3-yl)-2-oxoethyl)-6,7-dihydropyrrolo[3,4-f]isoindole-1,3(2H,5H)-dione] | 10 to 100 nM

The next lines start with the values.

Row | DC50 | SMILES
7 | > 100 nM | O=C1CCC(N2C(=O)c3cc4c(cc3C2=O)CN(CC(=O)N2CCCC(Oc3ccc([C@@H]5c6ccc(O)cc6CC[C@@H]5c5ccccc5)cc3)C2)C4)C(=O)N1 (mixture of isomers) [E 21, Rac-2-(2,6-dioxopiperidin-3-yl)-6-(2-(3-(4-((1R,2S)-6-hydroxy-2-phenyl-1,2,3,4-tetrahydronaphthalen-1-yl)phenoxy)piperidin-1-yl)-2-oxoethyl)-6,7-dihydropyrrolo[3,4-f]isoindole-1,3(2H,5H)-dione]
8 | > 100 nM | O=C1CCC(N2C(=O)c3cc4c(cc3C2=O)CN(C2CC(C(=O)N3CCCC(Oc5ccc([C@@H]6c7ccc(O)cc7CC[C@@H]6c6ccccc6)cc5)C3)C2)C4)C(=O)N1 (mixture of isomers) [E 22, Rac-2-(2,6-dioxopiperidin-3-yl)-6-(3-(3-(4-((1R,2S)-6-hydroxy-2-phenyl-1,2,3,4-tetrahydronaphthalen-1-yl)phenoxy)piperidine-1-carbonyl)cyclobutyl)-6,7-dihydropyrrolo[3,4-f]isoindole-1,3(2H,5H)-dione]
9 | 10 to 100 nM | O=C1CCC(N2C(=O)c3cc4c(cc3C2=O)CN(C2CCC(C(=O)N3CCCC(Oc5ccc([C@@H]6c7ccc(O)cc7CC[C@@H]6c6ccccc6)cc5)C3)CC2)C4)C(=O)N1 (mixture of isomers) [E 23, Rac-2-(2,6-dioxopiperidin-3-yl)-6-(4-(3-(4-((1R,2S)-6-hydroxy-2-phenyl-1,2,3,4-tetrahydronaphthalen-1-yl)phenoxy)piperidine-1-carbonyl)cyclohexyl)-6,7-dihydropyrrolo[3,4-f]isoindole-1,3(2H,5H)-dione]
10 | 10 to 100 nM | O=C1CCC(N2C(=O)c3cc4c(cc3C2=O)CN(C(=O)c2ccc(CC(=O)N3CCCC(Oc5ccc([C@@H]6c7ccc(O)cc7CC[C@@H]6c6ccccc6)cc5)C3)cc2)C4)C(=O)N1 (mixture of isomers) [E 24, Rac-2-(2,6-dioxopiperidin-3-yl)-6-(4-(2-(3-(4-((1R,2S)-6-hydroxy-2-phenyl-1,2,3,4-tetrahydronaphthalen-1-yl)phenoxy)piperidin-1-yl)-2-oxoethyl)benzoyl)-6,7-dihydropyrrolo[3,4-f]isoindole-1,3(2H,5H)-dione]
11 | 10 to 100 nM | O=C1CCC(N2C(=O)c3cc4c(cc3C2=O)CN(C(=O)CN2CC3(CCN(c5ccc([C@@H]6c7ccc(O)cc7CC[C@@H]6c6ccccc6)cc5)CC3)C2)C4)C(=O)N1 (mixture of isomers) [E 125, Rac-2-(2,6-dioxopiperidin-3-yl)-6-(2-(7-(4-((1R,2S)-6-hydroxy-2-phenyl-1,2,3,4-tetrahydronaphthalen-1-yl)phenyl)-2,7-diazaspiro[3.5]nonan-2-yl)acetyl)-6,7-dihydropyrrolo[3,4-f]isoindole-1,3(2H,5H)-dione]
12 | 10 to 100 nM | O=C1CCC(N2C(=O)c3cc4c(cc3C2=O)CN(C(=O)CN2CCC3(CC2)CCN(c2ccc([C@@H]5c6ccc(O)cc6CC[C@@H]5c5ccccc5)cc2)CC3)C4)C(=O)N1 (mixture of isomers) [E 126, Rac-2-(2,6-dioxopiperidin-3-yl)-6-(2-(9-(4-((1R,2S)-6-hydroxy-2-phenyl-1,2,3,4-tetrahydronaphthalen-1-yl)phenyl)-3,9-diazaspiro[5.5]undecan-3-yl)acetyl)-6,7-dihydropyrrolo[3,4-f]isoindole-1,3(2H,5H)-dione]
13 | 10 to 100 nM | O=C1CCC(N2C(=O)c3cc4c(cc3C2=O)CN(C(=O)CN2CC3(CCN(c5ccc([C@@H]6c7ccc(O)cc7CC[C@@H]6c6ccc(F)cc6)cc5)CC3)C2)C4)C(=O)N1 (mixture of isomers) [E 127, 2-(2,6-dioxopiperidin-3-yl)-6-(2-(7-(4-((1R,2S)-2-(4-fluorophenyl)-6-hydroxy-1,2,3,4-tetrahydronaphthalen-1-yl)phenyl)-2,7-diazaspiro[3.5]nonan-2-yl)acetyl)-6,7-dihydropyrrolo[3,4-f]isoindole-1,3(2H,5H)-dione]
14 | 10 to 100 nM | O=C1CCC(N2C(=O)c3cc4c(cc3C2=O)CN(CC(=O)N2CCC3(CC2)CCN(c2ccc([C@@H]5c6ccc(O)cc6CC[C@@H]5c5ccccc5)cc2)C3)C4)C(=O)N1 (mixture of isomers) [E 139, Rac-2-(2,6-dioxopiperidin-3-yl)-6-(2-(2-(4-((1R,2S)-6-hydroxy-2-phenyl-1,2,3,4-tetrahydronaphthalen-1-yl)phenyl)-2,8-diazaspiro[4.5]decan-8-yl)-2-oxoethyl)-6,7-dihydropyrrolo[3,4-f]isoindole-1,3(2H,5H)-dione]
15 | > 100 nM | O=C1CCC(N2C(=O)c3cc4c(cc3C2=O)CN(C(=O)CN2CCC3(CCN(c5ccc([C@@H]6c7ccc(O)cc7CC[C@@H]6c6ccccc6)cc5)CC3)C2)C4)C(=O)N1 (mixture of isomers) [E 140, Rac-2-(2,6-dioxopiperidin-3-yl)-6-(2-(8-(4-((1R,2S)-6-hydroxy-2-phenyl-1,2,3,4-tetrahydronaphthalen-1-yl)phenyl)-2,8-diazaspiro[4.5]decan-2-yl)acetyl)-6,7-dihydropyrrolo[3,4-f]isoindole-1,3(2H,5H)-dione]
